Source: patent US9981970B2, “Bicyclic ureas and thiadiazolidine-1, 1-dioxides as CETP inhibitors” (Merck Sharp & Dohme Corp., priority 2013, dated 2018)
Like-named read-outs stand apart in the source and are kept apart here.

Tests used:
[1] = patients on anacetrapib with baseline statin therapy compared with patients treated with just a statin; cited from earlier work
[2] = target: T1, endogenous CETP from serum (Homo sapiens, UniProt P11597); assay: RTA assay in 95% human serum (in vitro radioactive assay of CETP-catalyzed CE and TG transfer); assay type: biochemical
T1 construct: yielding a concentration of approximately 15 nM endogenous CETP in the assay; from tissue; host or cells: human serum
T1 sequence (P11597 18-493): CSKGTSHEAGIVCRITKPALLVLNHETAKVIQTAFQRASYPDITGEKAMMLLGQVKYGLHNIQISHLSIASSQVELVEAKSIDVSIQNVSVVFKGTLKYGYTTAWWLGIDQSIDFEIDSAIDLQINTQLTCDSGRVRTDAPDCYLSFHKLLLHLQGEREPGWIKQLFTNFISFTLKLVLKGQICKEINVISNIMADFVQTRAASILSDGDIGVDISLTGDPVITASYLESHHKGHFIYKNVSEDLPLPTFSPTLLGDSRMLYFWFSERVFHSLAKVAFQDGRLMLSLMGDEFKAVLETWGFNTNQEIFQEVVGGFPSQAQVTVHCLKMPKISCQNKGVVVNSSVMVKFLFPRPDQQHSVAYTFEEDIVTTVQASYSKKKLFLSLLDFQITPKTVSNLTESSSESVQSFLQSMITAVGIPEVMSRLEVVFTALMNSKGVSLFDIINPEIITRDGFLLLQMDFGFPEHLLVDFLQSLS
Source text: In Vitro Radioactive Assays of CETP-Catalyzed CE and TG Transfer (RTA Assay)
Reagents and sources are: [3H] cholesteryl oleate (GE #TRK.886), [3H] Triolein (Perkin-Elmer NET-431), Butylated hydroxyl toluene (Aldrich, #D4740-4), DOPC (Sigma, # P6354), Sodium Bromide (Fisher scientific #S255-500), PEG 8000 (Fisher, #BP233-1), and human HDL (Intracel Corp #RP-036).
Both assays measure the transfer of [3H] cholesteryl oleate or [3H] triolein from exogenous LDL to HDL.
Radiolabeled donor particles are generated by first combining 100 μl of 200 μM butylated hydroxyl toluene in CHCl3, 216 μL of 21.57 mM DOPC in EtOH, and either 500 μCi [3H]-triolein (Perkin Elmer #NET-431) or 500 μCi [3H]-cholesteryl oleate (GE #TRK886) in a glass tube. Reagents are mixed, dried under nitrogen, and then resuspended in 2 mL of 50 mM Tris, 27 μM EDTA at pH 7.4. After a brief vortex, the solution is sonicated until clear and mixed with 20 mL of fresh human serum. The mixture is incubated overnight at 37° C. The [3H] labeled LDL substrate is separated at 1.063 g/ml density by sequential ultracentrifugal flotation in NaBr according to the method of Havel, Eder, et al., 1955, and Chapman, Goldstein, et al., 1981. Once isolated the particles are dialyzed 3× in CETP buffer (50 mM Tris, pH 7.4, 100 mM NaCl, 1 mM EDTA). Human HDL is purchased from Intracel and used as the acceptor particles.
Transfer assays are performed in a 96-well v-bottom polypropylene plate. For the RTA using recombinant CETP (2% RTA), an assay cocktail is prepared with the final concentrations 128 μg/mL HDL, 20 nM rCETP, 2% human serum, and 1×CETP buffer. 1 μL of each test compound diluted in DMSO is added to 47 μL of assay cocktail per well and incubated at 37° C. for 1 hour. To initiate the transfer reaction, 2 μL radiolabeled LDL is added. After an additional 60 min of incubation at 37° C., the transfer action is terminated by precipitation of LDL with an equal volume of 20% WN PEG 8000. The plates are centrifuged at 2000 rpm for 30 minutes at 4° C. A 40 μL aliquot of the HDL-containing supernatant is transferred to a Packard Optiplate™ with 200 μL of MicroScint™ 20. After mixing, plates are counted by liquid scintillation. Counts present in the supernatant for blanks (wells containing only HDL acceptor, CETP buffer and DMSO) are subtracted from those containing test compounds and used to correct for non-specific transfer.
This is then combined with HDL and CETP buffer and the reaction proceeds as above and is terminated as described.
Comparison of the counts of samples with inhibitors to an uninhibited (DMSO only) positive control yield a percent inhibition. A plot of percent inhibition vs. log of inhibitor concentration, fit to a Sigmoidal 4 parameter equation is used to calculate IC50.
Starting materials are commercially available or are made using known procedures or as shown below. The examples may be synthesized according to the general schemes provided below and by using the synthetic intermediates that are described. […] When compounds of Formula I are mentioned herein, such compounds include compounds defined generically by Formula I and also the specific examples disclosed herein.

[3] = Table 1, data generally obtained using the RTA assay in 95% human serum, read-out: IC50
[4] = RTA assay in 95% human serum, endogenous CETP, read-out: RTA (95% HS)

SMILES | IC50 [2, 3] | further results
COc1cc(F)c(C(C)C)cc1-c1ccc(C(F)(F)F)cc1CN1C(=O)O[C@H](c2cc(C(F)(F)F)cc(C(F)(F)F)c2)[C@@H]1C [anacetrapib] | – | decrease of LDL-C [1]: 40%; increase of HDL-C [1]: 138%
COc1ccc(-c2ccc(C(=O)O)cc2C)cc1-c1ccc(C(F)(F)F)cc1[C@@H]1CC[C@H]2[C@@H](c3cc(F)cc(C(F)(F)F)c3)NC(=O)N12 [Example 16, 2″-{(1R,5S,7aS)-1-[3-fluoro-5-(trifluoromethyl)phenyl]-3-oxohexahydro-1H-pyrrolo[1,2-c]imidazol-5-yl}-4′-methoxy-2-methyl-4″-(trifluoromethyl)-1,1′:3′,1″-terphenyl-4-carboxylic acid] | 1510 nM | –
COc1ncc(-c2c(C)cc(C(=O)O)cc2C)cc1-c1ccc(C(F)(F)F)cc1[C@@H]1CC[C@H]2[C@@H](c3cc(C(F)(F)F)cc(C(F)(F)F)c3)NC(=O)N12 [Example 5, 4-{5-[2-{(1R,5S,7aS)-1-[3,5-bis(trifluoromethyl)phenyl]-3-oxohexahydro-1H-pyrrolo[1,2-c]imidazol-5-yl}-4-(trifluoromethyl)phenyl]-6-methoxypyridin-3-yl}-3,5-dimethylbenzoic acid] | 392 nM | –
COc1ncc(-c2ccc(C(=O)NC3(C#N)CC3)cc2C)cc1-c1ccc(C(F)(F)F)cc1[C@@H]1CC[C@H]2[C@@H](c3cc(C(F)(F)F)cc(C(F)(F)F)c3)NC(=O)N12 [Example 2, 4-{5-[2-{(1R,5S,7aS)-1-[3,5-bis(trifluoromethyl)phenyl]-3-oxohexahydro-1H-pyrrolo[1,2-c]imidazol-5-yl}-4-(trifluoromethyl)phenyl]-6-methoxypyridin-3-yl}-N-(1-cyanocyclopropyl)-3-methylbenzamide] | – | IC50 [2, 4]: 276 nM
COc1ccc(-c2ccc(C(=O)O)cc2C)cc1-c1cnc(C(F)(F)F)cc1[C@@H]1CC[C@H]2[C@@H](c3cc(C(F)(F)F)cc(C(F)(F)F)c3)NC(=O)N12 [Example 20, 3′-[4-{(1R,5S,7aS)-1-[3,5-bis(trifluoromethyl)phenyl]-3-oxohexahydro-1H-pyrrolo[1,2-c]imidazol-5-yl}-6-(trifluoromethyl)pyridin-3-yl]-4′-methoxy-2-methylbiphenyl-4-carboxylic acid] | 1570 nM | –
COc1ccc(C2CCC(C(=O)O)CC2)cc1-c1ccc(C(F)(F)F)cc1[C@@H]1CC[C@H]2[C@@H](c3cc(C(F)(F)F)cc(C(F)(F)F)c3)NC(=O)N12 (stereo partly drawn) [Example 3, 4-(2′-((1R,5 S,7aS)-1-(3,5-bis(trifluoromethyl)phenyl)-3-oxohexahydro-1H-pyrrolo[1,2-c]imidazol-5-yl)-6-methoxy-4′-(trifluoromethyl)-[1,1′-biphenyl]-3-yl)cyclohexanecarboxylic acid] | – | IC50 [2, 4]: 1730 nM
COc1ccc(CCC(=O)O)cc1-c1ccc(C(F)(F)F)cc1[C@@H]1CC[C@H]2[C@@H](c3cc(C(F)(F)F)cc(C(F)(F)F)c3)NC(=O)N12 [Example 7, 3-[2′-{(1R,5S,7aS)-1-[3,5-bis(trifluoromethyl)phenyl]-3-oxohexahydro-1H-pyrrolo[1,2-c]imidazol-5-yl}-6-methoxy-4′-(trifluoromethyl)biphenyl-3-yl]propanoic acid] | 1200 nM | –
